Tests used:
Format in all cases: in vivo
C57B1/6J mice [1] = test: Changes in body weight of mice after a single subcutaneous injection of TCDD; settings: for Weight (body weight): at sacrifice
Procedure: (§1) Male C57B1/6J mice of 5 weeks old having the average weight of 18-22 g which had been bred in CRJ (Charles River in Japan) were purchased and used in this example as experimental animals. Those mice were acclimated under the constant breeding condition, i.e. the temperature of 24±1° C., the humidity of 60±10% and the light and darkness cycle of 12 hours, for one week and thereafter, utilized in the experiment.
(§2) The Experimental animals were supplied with Purina powdered feed (purchased from Hae Eun Trade) and supplied with water ad libitum. All the animals were weighed twice a week during experimentation.
(§3) 2,3,7,8-tetrachlorodibenzo-p-dioxin (TCDD) dissolved in toluene (purity of 95% or more as a result of gas chromatography analysis), manufactured by Chem. Services Inc. in USA, was volatilized with nitrogen to obtain powder. The obtained powder was dissolved in a mixed solvent containing acetone and corn oil with a volume ratio of 1:6. The resulting solution each containing 110, 27.5 and 6.9 μg/kg of TCDD was subcutaneously injected to mice at a volume of 5 ml per body weight. […] The mice were supplied with the feed from 10 days before (pre-administration) to 60 days after administration of TCDD (post-administration).
(§4) The results are expressed as Mean±Standard Deviation values. For statistical analysis of the body weight, feed and water uptake, biochemical findings, hematological findings and the weight of organ in an acute toxicity test, verification was performed by one way analysis of variance (ANOVA) in case of equal distribution. In case significance was recognized in ANOVA, the Student's t-test was performed in the levels of p<0.05 and p<0.01.

C57B1/6J mice [2] = test: Johnsen's score of the testis tissue (level of spermatogenesis)
Procedure: as §3
Upon completion of the experiment for 60 days, the experimental animals were fasted for 24 hours and anesthetized with ether. Then, they were abdominally incised and blood was gathered from abdominal vena cava. They were sacrificed by the release of blood. Liver, kidneys, testes and epididymides were extracted and all the extracted organs were weighed. Only the testes were separately kept and observed under optical and electron microscopes. For biochemical finding test, serum was separated from blood with a centrifuge and the separated serum was analyzed with an automated blood biochemical analyzer, Dimension (Dupont, USA). Blood was put to another blood gathering bottle and then, analyzed with an automated blood cell analyzer, Celldyn (Abbott, USA).
The extracted testes were fixed in 10% neutralized formalin buffer for 24 hours and washed with the flowing water. It was subsequently dehydrated with ethanol and cleared with xylene and then, embedded with paraffin. It was sectioned with microtome (microm is HM 440E) to a thickness of 2-3 μm and then, double stained with hematoxylin and eosin to observe under an optical microscope.
For evaluation of the level of spermatogenesis, Johnsen's score was determined from 10 to 1 based on the presence or absence of principal cells arranged according to maturation of spermatogenesis. The basis of Johnsen's score in testes was the following:
10: Perfect spermatogenesis having many sperms, organization of embryonic epithelial cells with a constant thickness, and opened lumen
9: Despite many sperms, significant separation of embryonic epithelial cells from the basement membrane and disruption thereof, or loss of lumen
8: Presence of 5 to less than 10 sperms in the section
7: Many sperm cells without sperms
6: 5 to less than 10 sperm cells without sperms
5: Several or many spermatocytes without sperms and sperm cells
4: Less than 5 spermatocytes without sperms and sperm cells
3: Presence of only spermatogonia as reproductive cells
2: Presence of only Sertoli cells without any reproductive cells
1: No cells in the section of seminiferous tubules

C57B1/6J mice [3] = test: Effect of UDCA on death (death rate, death time) of mice by a single subcutaneous injection of TCDD
Procedure: as §1, §2, §3, §4

[4] = TCDD 27.5 μg/kg + UDCA 0.5 wt %
[5] = TCDD 110.0 μg/kg + UDCA 0.125 wt %
[6] = TCDD 110.0 μg/kg + UDCA 0.25 wt %
[7] = TCDD 6.9 μg/kg + UDCA 0.125 wt %
[8] = TCDD 6.9 μg/kg + UDCA 0.25 wt %
[9] = TCDD 110.0 μg/kg + UDCA 0.5 wt %

## C[C@H](CCC(=O)O)[C@H]1CC[C@H]2[C@@H]3[C@@H](O)C[C@@H]4C[C@H](O)CC[C@]4(C)[C@H]3CC[C@]12C [UDCA, 3α, 7β-dihydroxy-5β-cholanoic acid]
C57B1/6J mice [1]; TCDD 27.5 μg/kg + UDCA 0.5 wt %, 50 days
  body weight: 25.31 ± 0.43
C57B1/6J mice [1]; TCDD 27.5 μg/kg + UDCA 0.5 wt %, 59 days
  body weight: 24.52 ± 0.42
C57B1/6J mice [1]; [4]
  Weight (body weight): 22.15 ± 1.14 g
C57B1/6J mice [1]; TCDD 110.0 μg/kg + UDCA 0.125 wt %, 0 day
  body weight: 19.48 ± 0.29
C57B1/6J mice [1]; TCDD 110.0 μg/kg + UDCA 0.125 wt %, 12 days
  body weight: 19.40 ± 0.40
C57B1/6J mice [1]; TCDD 110.0 μg/kg + UDCA 0.125 wt %, 22 days
  body weight: 18.44 ± 0.87
C57B1/6J mice [1]; TCDD 110.0 μg/kg + UDCA 0.125 wt %, 32 days
  body weight: 12.61
C57B1/6J mice [1]; [5]
  Weight (body weight): 15.93 g
C57B1/6J mice [1]; TCDD 110.0 μg/kg + UDCA 0.25 wt %, 0 day
  body weight: 19.65 ± 0.44
C57B1/6J mice [1]; TCDD 110.0 μg/kg + UDCA 0.25 wt %, 12 days
  body weight: 20.64 ± 0.50
C57B1/6J mice [1]; TCDD 110.0 μg/kg + UDCA 0.25 wt %, 22 days
  body weight: 19.69 ± 1.03
C57B1/6J mice [1]; TCDD 110.0 μg/kg + UDCA 0.25 wt %, 32 days
  body weight: 18.78 ± 1.14
C57B1/6J mice [1]; TCDD 110.0 μg/kg + UDCA 0.25 wt %, 39 days
  body weight: 14.26
C57B1/6J mice [1]; TCDD 110.0 μg/kg + UDCA 0.25 wt %, 50 days
  body weight: 14.85
C57B1/6J mice [1]; TCDD 110.0 μg/kg + UDCA 0.25 wt %, 59 days
  body weight: 17.10
C57B1/6J mice [1]; [6]
  Weight (body weight): 18.53 ± 3.79 g
C57B1/6J mice [1]; TCDD 110.0 μg/kg + UDCA 0.5 wt %, 0 day
  body weight: 19.71 ± 0.14
C57B1/6J mice [1]; TCDD 110.0 μg/kg + UDCA 0.5 wt %, 12 days
  body weight: 20.52 ± 0.32
C57B1/6J mice [1]; TCDD 110.0 μg/kg + UDCA 0.5 wt %, 22 days
  body weight: 21.15 ± 0.82
C57B1/6J mice [1]; TCDD 110.0 μg/kg + UDCA 0.5 wt %, 32 days
  body weight: 20.76 ± 1.04
C57B1/6J mice [1]; TCDD 110.0 μg/kg + UDCA 0.5 wt %, 39 days
  body weight: 19.81 ± 1.37
C57B1/6J mice [1]; TCDD 110.0 μg/kg + UDCA 0.5 wt %, 50 days
  body weight: 18.19 ± 1.80
C57B1/6J mice [1]; TCDD 110.0 μg/kg + UDCA 0.5 wt %, 59 days
  body weight: 18.53 ± 1.59
C57B1/6J mice [2]; TCDD 6.9 μg/kg + UDCA 0.125 wt % in feed
  Johnsen's score of the testis tissue: 8.7 ± 0.09
C57B1/6J mice [2]; TCDD 6.9 μg/kg + UDCA 0.250 wt % in feed
  Johnsen's score of the testis tissue: 8.84 ± 0.10
C57B1/6J mice [2]; TCDD 6.9 μg/kg + UDCA 0.500 wt % in feed
  Johnsen's score of the testis tissue: 9.10 ± 0.08
C57B1/6J mice [2]; TCDD 27.5 μg/kg + UDCA 0.125 wt % in feed
  Johnsen's score of the testis tissue: 8.40 ± 0.10
C57B1/6J mice [2]; TCDD 27.5 μg/kg + UDCA 0.250 wt % in feed
  Johnsen's score of the testis tissue: 8.42 ± 0.08
C57B1/6J mice [2]; TCDD 27.5 μg/kg + UDCA 0.500 wt % in feed
  Johnsen's score of the testis tissue: 8.81 ± 0.07
C57B1/6J mice [3]; [7]
  Death rate: 0%
  No. of dead mice/No. of administered mice: 0/10
C57B1/6J mice [3]; [8]
  Death rate: 0%
  No. of dead mice/No. of administered mice: 0/10
C57B1/6J mice [3]; TCDD 6.9 μg/kg + UDCA 0.5 wt %
  Death rate: 0%
  No. of dead mice/No. of administered mice: 0/10
C57B1/6J mice [3]; TCDD 27.5 μg/kg + UDCA 0.125 wt %
  No. of dead mice/No. of administered mice: 0/10
C57B1/6J mice [3]; TCDD 27.5 μg/kg + UDCA 0.25 wt %
  No. of dead mice/No. of administered mice: 0/10
C57B1/6J mice [3]; [4]
  No. of dead mice/No. of administered mice: 0/10
C57B1/6J mice [3]; [5]
  Death time (Mean ± SD): 33 ± 4 days
  No. of dead mice/No. of administered mice: 10/10
C57B1/6J mice [3]; [6]
  Death rate: 90%
  Death time (Mean ± SD): 34 ± 5 days
  No. of dead mice/No. of administered mice: 9/10
C57B1/6J mice [3]; [9]
  Death rate: 40%
  Death time (Mean ± SD): 51 ± 8 days
  No. of dead mice/No. of administered mice: 4/10
